Consider one compound from PMC12758333 (Autophagy, 2025).

The assay deals with T1, HMGB1 (HMGB1-His) (Homo sapiens, UniProt P09429).
T1 sequence (P09429 1-215): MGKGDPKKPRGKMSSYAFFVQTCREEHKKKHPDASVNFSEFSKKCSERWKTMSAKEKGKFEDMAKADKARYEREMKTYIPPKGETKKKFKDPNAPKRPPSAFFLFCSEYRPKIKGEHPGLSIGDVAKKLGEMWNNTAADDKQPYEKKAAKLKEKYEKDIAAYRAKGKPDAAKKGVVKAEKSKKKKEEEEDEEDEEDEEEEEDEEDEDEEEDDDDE
The experiment in a line: microscale thermophoresis. Type of assay: binding. In general terms: MST reads how a fluorescent partner responds to local heating, with and without ligand.

For `CN1CCN(c2ccc(C(=O)Nc3n[nH]c4ccc(Cc5cc(F)cc(F)c5)cc34)c(NC3CCOCC3)c2)CC1` [entrectinib], the Kd (usually a measure of binding affinity in units of concentration) came to 65.5 µM.
